Molecules are shown by their SMILES.

For 49 molecules, fluorescence lifetime results are on record in the Deep4Chem optical property database.

This data set is described as follows: solvent given as SMILES.
Setting [1] is: in O=P(c1ccccc1)(c1ccccc1)c1ccccc1Oc1ccccc1P(=O)(c1ccccc1)c1ccccc1.

As to `COC(=O)C12N=N[C@](C(=O)OC)(C3C4CCC(C4)C31)[C@@]1(C)C[C@@H]21` (stereo not given in full), the fluorescence lifetime (in CC#N) worked out at 116 ns.

Turning to `O=C1c2ccccc2C2=C(c3ccccn3)NN=C(c3ccccn3)C2c2ccccc21` (stereo not given), the fluorescence lifetime (in CC#N) turned out to be 12.8 ns.

`CCn1c2ccccc2c2cc(-c3cc(-c4ccc5c(c4)c4ccccc4n5CC)nc(-c4ccc(C#N)cc4)n3)ccc21` showed a fluorescence lifetime (in C1CCOC1) of 5.14 ns.

With `CCN(CC)c1ccc2cc(C#N)/c(=N\C(=O)c3ccc(F)cc3)oc2c1`, the fluorescence lifetime is, setting by setting: (in CCO) 3 ns; (in ClCCl) 3.8 ns.

The molecule `COc1ccc(C2=Cc3c4ccccc4cc[n+]3[B-](F)(F)O2)cc1` displayed a fluorescence lifetime (in ClC(Cl)Cl) of 0.958 ns.

For `CCN(CC)c1ccc2c(c1)oc(=O)c1cnc3c(cnn3-c3ccccc3)c12`, the fluorescence lifetime (in ClCCl) came to 2.48 ns.

Consider `COc1ccc(/C=C/c2ccccc2)cc1`, for which the fluorescence lifetime (in CC#N) amounted to 0.04 ns.

Under “in ClCCl”, `CCCCC(CC)COc1ccc2nc(-c3ccc(-c4ccc(N(C)C)cc4)s3)sc2c1` (stereo not given) gave a fluorescence lifetime of 2.28 ns.

As to `O=c1[nH]c(=O)n([C@@H]2O[C@H](CO)[C@@H](O)[C@H]2O)cc1-c1cc2ccccc2s1`, the fluorescence lifetime is, setting by setting: (in C1COCCO1) 0.45 ns; (in CC#N) 0.49 ns; (in CO) 0.6 ns; (in O) 1.04 ns.

In the case of `CCCn1c2cccc3c2[c+]2c4c1cccc4n(CCC)c1cccc(c12)n3CCC`, the fluorescence lifetime by setting is: (in CC#N) 7.5 ns; (in CO) 9.9 ns; (in ClCCl) 6.3 ns; (in OCC(O)CO) 11 ns.

`CCN1CCCc2cc3c(cc21)Oc1cc2c(cc1=N3)C(CS(=O)(=O)[O-])CC(C)(C)[N+]=2CCCC(=O)[O-]` (stereo not given) showed a fluorescence lifetime (in O) of 3.6 ns.

Consider `O=S(=O)(/N=c1\oc2cccc3c4c(-c5ccccc5)oc5cccc(c(c1-c1ccccc1)c23)c54)C(F)(F)F`, for which the fluorescence lifetime stood at 3.8 ns (in CCCCCC); 7.5 ns (in CO); 6.6 ns (in CS(C)=O); 5.6 ns (in ClC(Cl)Cl); 6.2 ns (in ClCCl); 2.3 ns (in O).

Take `CCCCCCCCCCOc1ccc(C#Cc2ccc(C#Cc3ccc(OCCCCCCCCCC)c(OCCCCCCCCCC)c3)c3nc4c5ccccc5c5ccccc5c4nc23)cc1OCCCCCCCCCC`: the fluorescence lifetime runs as follows: (in C1CCOC1) 8.24 ns; (in Cc1ccccc1) 7.1 ns; (in ClCCl) 8.66 ns.

`CCCCCCCCN1c2ccccc2Sc2cc(/C=C/c3ccc(N(c4ccc(/C=C/c5ccc6c(c5)Sc5ccccc5N6CCCCCCCC)cc4)c4ccc(/C=C/c5ccc(/C=C/c6ccc(N(c7ccc(/C=C/c8ccc9c(c8)Sc8ccccc8N9CCCCCCCC)cc7)c7ccc(/C=C/c8ccc9c(c8)Sc8ccccc8N9CCCCCCCC)cc7)cc6)c6nsnc56)cc4)cc3)ccc21`: the fluorescence lifetime by setting is: (in C1CCOC1) 1.45 ns; (in CCOC(C)=O) 1.83 ns; (in Cc1ccccc1) 3.53 ns; (in ClC(Cl)Cl) 2.25 ns; (in ClCCl) 2 ns.

The molecule `Cc1ccc(C2=Cc3ccc4ccccc4[n+]3[B-](F)(F)O2)cc1` showed a fluorescence lifetime (in ClC(Cl)Cl) of 1.79 ns.

Turning to `CC(C)c1cccc(C(C)C)c1N1C(=O)c2cccc3c(Oc4ccccc4)ccc(c23)C1=O`, the fluorescence lifetime (in ClCCl) was found to be 4.67 ns.

As to `COc1cc2[nH]c3c(c2cc1OCC(=O)O)CCCC3=O`, the fluorescence lifetime stood at 0.411 ns (in C1CCOC1); 0.189 ns (in C1COCCO1); 0.627 ns (in CC#N); 1.24 ns (in CCCCCCCCCCCCO); 1.17 ns (in CCCCCCCCCCO); 1.15 ns (in CCCCCCCCO). Besides, the fluorescence lifetime reads like this: (in CCCCCCO) 1.17 ns; (in CCCCO) 1.29 ns; (in CCO) 1.69 ns; (in CCOC(C)=O) 0.279 ns; (in CN(C)C=O) 1.92 ns; (in CO) 1.87 ns. In addition, the fluorescence lifetime is 2.27 ns (in CS(C)=O), 0.189 ns (in Cc1ccccc1), 2.23 ns (in O) and 0.188 ns (in c1ccccc1).

For `N#Cc1ccc(-n2c(-c3ccc(-c4ccc(-c5nc6c7ccccc7c7ccccc7c6n5-c5ccc(C#N)c6ccccc56)cc4)cc3)nc3c4ccccc4c4ccccc4c32)c2ccccc12`, for the setting “in ClCCl”, the fluorescence lifetime amounted to 1.92 ns.

`N#Cc1ccc2nc3c(=O)[nH]c(=O)[nH]c3nc2c1` showed a fluorescence lifetime (in ClCCCl) of 0.16 ns.

`C[SiH](C)c1ccc([SiH](C)C)c2ccccc12` came in with a fluorescence lifetime (in C1CCCCC1) of 30 ns.

As to `CC1(C)c2ccccc2N(c2ccccc2)c2ccc(-c3nc(-c4ccccc4)nc(-c4ccccc4)n3)cc21`, under setting [1], the fluorescence lifetime was found to be 4.37 ns.

Regarding `CC1=[N+]2C(=C(c3ccc(C=O)cc3)c3ccc(C)n3[B-]2(F)F)C=C1c1cc2n(c1)[B-](F)(F)[N+]1=CC=CC1=C2c1c(C)cc(C)cc1C`, the fluorescence lifetime is 2.7 ns (in C1CCCCC1) and 0.9 ns (in CCOC(C)=O).

As to `COC(=O)c1[nH]c(-c2ccc(Br)cc2)c2nnc3ccc(OC)cc3c12`, the fluorescence lifetime (in ClCCl) came out at 0.58 ns.

Regarding `Oc1ccc2ccc(C3(O)C4CC5CC(C4)CC3C5)cc2c1` (stereo not given), the fluorescence lifetime (in CC#N) amounted to 7.78 ns.

Regarding `Cc1ccc2sc3cc(CCC(=O)O)ccc3c(=O)c2c1`, the fluorescence lifetime worked out at 0.07 ns (in CC#N); 1.3 ns (in CC(C)O); 1.7 ns (in CCO); 2.55 ns (in CO); 4.6 ns (in OCCO).

With `COc1ccc2cc(/C=C/C3=C4CCc5ccccc5C4=[O+][B-](F)(F)O3)ccc2c1`, the fluorescence lifetime (in ClCCl) was found to be 1.6 ns.

Regarding `CCCCCCN1C(=O)c2cccc3c(-c4scc5c4OCCO5)ccc(c23)C1=O`, the fluorescence lifetime (in ClC(Cl)Cl) was 3.51 ns.

In the case of `COc1ccc(-c2ccc3c(c2)c2cc(-c4ccc(OC)cc4)ccc2n3-c2ccc(C(=O)c3ccc4sc5ccccc5c4c3)nc2)cc1`, the fluorescence lifetime (in c1cc(-n2c3ccccc3c3ccccc32)cc(-n2c3ccccc3c3ccccc32)c1) worked out at 8.4 ns.

Under “in ClCCl”, `CC(C)(C)c1ccc2c(c1)c1cc(C(C)(C)C)ccc1n2-c1ccc(C#Cc2ccc3c4ccc(C#Cc5ccc(-n6c7ccc(C(C)(C)C)cc7c7cc(C(C)(C)C)ccc76)cc5)cc4n(-c4ccc(C(F)(F)F)cc4)c3c2)cc1` yielded a fluorescence lifetime of 0.1 ns.

As for `FC(F)(F)c1ccc(/C=C/c2nc3c(ccc4ccccc43)s2)cc1`, the fluorescence lifetime reads like this: (in C1CCCCC1) 0.75 ns; (in CC#N) 0.84 ns.

In turn, `Cc1cccc2c1nc1c(=O)n(C)c(=O)nc-1n2C` gave a fluorescence lifetime (in CC#N) of 1.8 ns.

Under “in Cc1ccccc1”, `CC(C)c1cccc(C(C)C)c1N1C(=O)c2cc(Cl)c3c4c(Cl)cc5c6c(cc(Cl)c(c7c(Cl)cc(c2c37)C1=O)c64)C(=O)N(c1c(C(C)C)cccc1C(C)C)C5=O` gave a fluorescence lifetime of 5.11 ns.

For the molecule `CC(C)(C)c1ccc2c(c1)c1cc3c4cc(C(C)(C)C)ccc4c4c5c6ccc(C(C)(C)C)cc6c6cc7c8cc(C(C)(C)C)ccc8c8c2c1c(c34)c(c78)c65`, the fluorescence lifetime reads like this: (in CCCCCC) 0.61 ns; (in CCOCC) 0.618 ns; (in Cc1ccccc1) 0.606 ns.

Where the note is “in CN(C)C=O”, `CCCCCCCCCCCCN1C(=O)c2ccc3c4ccc5c6c(ccc(c7ccc(c2c37)C1=O)c64)C(=O)NC5=O` came in with a fluorescence lifetime of 3 ns.

`Cc1ccc2nc3c(nc2c1)c(-c1ccccc1)nn3C`: the fluorescence lifetime was 9.32 ns (in C1CCCCC1), 23.6 ns (in C1CCOC1) and 19.8 ns (in CC#N).

As for `N#Cc1c(-n2c3ccccc3c3ccccc32)c(-n2c3ccc(-c4ccccc4)cc3c3cc(-c4ccccc4)ccc32)c(-n2c3ccccc3c3ccccc32)c(-n2c3ccc(-c4ccccc4)cc3c3cc(-c4ccccc4)ccc32)c1-n1c2ccccc2c2ccccc21`, the fluorescence lifetime turned out to be 5.8 ns (in Cc1ccccc1) and 4.5 ns (in c1cc(-c2cccc(-n3c4ccccc4c4ccccc43)c2)cc(-n2c3ccccc3c3ccccc32)c1).

`O=C(O)CCCOc1cc2ccc3cccc4ccc(c1)c2c34` yielded a fluorescence lifetime (in CO) of 59 ns.

The molecule `C[NH+](C)c1c2ccccc2cc2ccccc12` had a fluorescence lifetime (in O) of 17.3 ns.

Molecule `F[B-]1(F)Oc2ccccc2-c2cc(-n3c4ccc(-c5ccccc5)cc4c4cc(-c5ccccc5)ccc43)cc[n+]21` displayed a fluorescence lifetime under setting [1] of 6.3 ns.

`[NH-]c1cc(N)cc(-c2nc3ccccc3s2)c1` returned a fluorescence lifetime (in O) of 3.98 ns.

For the molecule `Cc1ccc(C2=C3C=CC(C#Cc4ccccc4)=[N+]3[B-](F)(F)n3c(C#Cc4ccccc4)ccc32)cc1`, the fluorescence lifetime (in C1CCCCC1) was 6.58 ns; the fluorescence lifetime (in C1CCOC1) came out at 6.62 ns; the fluorescence lifetime (in C1COCCO1) stood at 6.44 ns; the fluorescence lifetime (in CCOC(C)=O) is 6.74 ns; the fluorescence lifetime (in CO) turned out to be 6.51 ns; the fluorescence lifetime (in Cc1ccccc1) worked out at 6.18 ns. Under “in ClC(Cl)Cl”, this molecule yielded a fluorescence lifetime of 6.66 ns.

Molecule `CC1(CCCCC(=O)NCCCCCCO)C(/C=C/C=C/C=C2/N(CCCS(=O)(=O)[O-])c3ccc(S(=O)(=O)[O-])cc3C2(C)C)=[N+](CCCS(=O)(=O)[O-])c2ccc(S(=O)(=O)[O-])cc21` (stereo not given) registered a fluorescence lifetime (in O) of 1 ns.

Turning to `CC1(C)c2ccccc2N(c2ccccc2)c2ccc(C(=O)c3ccc4c(c3)C(C)(C)c3ccccc3N4c3ccccc3)cc21`, the fluorescence lifetime under setting [1] was found to be 0.81 ns.

Take `CCCCOC(=O)c1ccccc1-c1c2ccc(=[N+](CC)CC)cc-2oc2cc(N(CC)CC)ccc12`: the fluorescence lifetime reads like this: (in CC#N) 1.61 ns; (in CCO) 2.92 ns; (in CN(C)C=O) 1.92 ns; (in O) 1.67 ns.

`C(=C\c1cccc2ccccc12)/c1ccc(-c2nnc(-c3ccc(-c4cc5ccccc5s4)cc3)o2)cc1` returned a fluorescence lifetime (in Cc1ccccc1) of 0.97 ns and a fluorescence lifetime (in ClC(Cl)Cl) of 1.15 ns.

`CCC1(CC)c2cc(-c3cccs3)ccc2-c2c1c1c(c3c2C(CC)(CC)c2cc(-c4cccs4)ccc2-3)C(CC)(CC)c2cc(-c3cccs3)ccc2-1`: the fluorescence lifetime (in C1CCOC1) was determined as 2.1 ns.

In the case of `CC/C=C/C=C/C=C/C=C/CCCCCCCC(=O)O`, the fluorescence lifetime amounted to 3.1 ns (in CCCCCCCCCC) and 1.5 ns (in CCCCO).

On to `CCOc1ccc2c(-c3nc(-c4ccccc4F)no3)cc(=O)oc2c1`, for which the fluorescence lifetime was 6.6 ns (in CCO) and 5.1 ns (in ClC(Cl)Cl).

For the molecule `CCCCCCn1c2ccccc2c2cc3c4cc5c6ccccc6n(CCCCCC)c5cc4c4cc5c(C)cc(=O)oc5cc4c3cc21`, the fluorescence lifetime (in ClC(Cl)Cl) was 3.1 ns.
